Assay results taken from patent publication US20100048696A1, “AGRICULTURAL DISEASE CONTROL AGENT” (Idemitsu Kosan Co., Ltd., priority 2007, published 2010).
Where two headings read alike, the source gives them in different places.

Tests used:
Assay type in all cases: cell-based
Conditions in all cases: 5 minutes
Erwinia chrysanthemi = test: Material disinfection test
Botrytis cinerea = test: Material disinfection test
Burkholderia plantarii = test: Material disinfection test
Burkholderia glumae = test: Material disinfection test
Fusarium oxysporum = test: Material disinfection test
Ralstonia solanacearum = test system: Ralstonia solanacearum
Pyricularia oryzae = test system: Pyricularia oryzae
Pythium ultimum = test: Material disinfection test
Rhizoctonia solani = test: Material disinfection test

Compound | Average value of viable bacteria counts on all materials examined (Erwinia chrysanthemi; 10 times solution sprayed) | Average value of viable bacteria counts on all materials examined (Erwinia chrysanthemi; 50 times solution sprayed) | average value of viable filamentous fungi counts on all materials examined (Botrytis cinerea; 10 times solution sprayed) | average value of viable filamentous fungi counts on all materials examined (Botrytis cinerea; 50 times solution sprayed) | Average value of viable bacteria counts on all materials examined (Burkholderia plantarii; 10 times solution sprayed) | Average value of viable bacteria counts on all materials examined (Burkholderia plantarii; 50 times solution sprayed) | Average value of viable bacteria counts on all materials examined (Burkholderia glumae; 10 times solution sprayed) | Average value of viable bacteria counts on all materials examined (Burkholderia glumae; 50 times solution sprayed) | average value of viable filamentous fungi counts on all materials examined (Fusarium oxysporum; 10 times solution sprayed) | average value of viable filamentous fungi counts on all materials examined (Fusarium oxysporum; 50 times solution sprayed) | Average value of viable bacteria counts on all materials examined (Ralstonia solanacearum; 10 times solution sprayed) | Average value of viable bacteria counts on all materials examined (Ralstonia solanacearum; 50 times solution sprayed) | average value of viable filamentous fungi counts on all materials examined (Pyricularia oryzae; 10 times solution sprayed) | average value of viable filamentous fungi counts on all materials examined (Pyricularia oryzae; 50 times solution sprayed) | average value of viable filamentous fungi counts on all materials examined (Pythium ultimum; 10 times solution sprayed) | average value of viable filamentous fungi counts on all materials examined (Pythium ultimum; 50 times solution sprayed) | average value of viable filamentous fungi counts on all materials examined (Rhizoctonia solani; 10 times solution sprayed) | average value of viable filamentous fungi counts on all materials examined (Rhizoctonia solani; 50 times solution sprayed)
CC(=O)O [Acetic acid] | 3.2 × 10^3 cfu/ml | 1.1 × 10^7 cfu/ml | 65 cfu/ml | 2.6 × 10^2 cfu/ml | 1.2 × 10^3 cfu/ml | 8.3 × 10^6 cfu/ml | 5.0 × 10^2 cfu/ml | 3.3 × 10^7 cfu/ml | 76 cfu/ml | 4.2 × 10^2 cfu/ml | 2.8 × 10^2 cfu/ml | 6.0 × 10^8 cfu/ml | 98 cfu/ml | 1.5 × 10^2 cfu/ml | 58 cfu/ml | 6.8 × 10^3 cfu/ml | 33 cfu/ml | 3.1 × 10^2 cfu/ml
O=C1O[C@H]([C@@H](O)CO)C(O)=C1O [Ascorbic acid] | 1.0 × 10^8 cfu/ml | 1.0 × 10^8 cfu/ml | 4.5 × 10^5 cfu/ml | 5.0 × 10^5 cfu/ml | 1.6 × 10^7 cfu/ml | 1.8 × 10^7 cfu/ml | 1.1 × 10^8 cfu/ml | 3.2 × 10^8 cfu/ml | 3.2 × 10^5 cfu/ml | 4.7 × 10^5 cfu/ml | 8.5 × 10^8 cfu/ml | 1.0 × 10^9 cfu/ml | 4.2 × 10^4 cfu/ml | 6.2 × 10^4 cfu/ml | 2.3 × 10^4 cfu/ml | 1.5 × 10^4 cfu/ml | 1.3 × 10^5 cfu/ml | 2.0 × 10^5 cfu/ml
O=C(O)CC(O)(CC(=O)O)C(=O)O [Citric acid] | 1.7 × 10^8 cfu/ml | 1.9 × 10^8 cfu/ml | 2.6 × 10^5 cfu/ml | 4.6 × 10^5 cfu/ml | 3.8 × 10^7 cfu/ml | 1.0 × 10^7 cfu/ml | 2.6 × 10^8 cfu/ml | 1.7 × 10^8 cfu/ml | 3.7 × 10^5 cfu/ml | 3.4 × 10^5 cfu/ml | 1.1 × 10^9 cfu/ml | 1.5 × 10^9 cfu/ml |  | 3.2 × 10^4 cfu/ml | 2.8 × 10^4 cfu/ml | 1.7 × 10^4 cfu/ml | 2.0 × 10^5 cfu/ml | 1.7 × 10^5 cfu/ml
